# Data: patent publication US20240254077A1, “METHODS OF TREATING CHRONIC OBSTRUCTIVE PULMONARY DISEASE INCLUDING COMPOUNDS USEFUL THEREIN” (The Trustees of Columbia University in the City of New York, priority 2021, published 2024)
# “Also recorded” adds a separate entry of the source. Where two headings read alike, the source gives them in different places.
# Experiments:
# MMP1 = MMP1 concentration, fluoxetine derivatives on SAEC (FIG. 6); assay type: cell-based, human
# Text: FIG. 6: MMP1 activity—fluoexetine derivatives on SAEC. Comparison of Derivatives 1-6 on MMP1 concentration.
# IL-8 = IL-8 expression in CSE treated SAEC, dose response; assay type: cell-based, human; conditions: 5% CSE, varying doses
# MMP-1 = MMP-1 expression and secretion in CSE exposed small airway epithelial cell (SAEC) cultures; assay type: cell-based, human; conditions: for MMP1 expression / MMP1 induction: SAEC, 5% CSE, varying doses (dose response)
# Procedure: FIG. 2: Fluoxetine inhibits MMP-1 production and TLR-4 signaling in CSE exposed SAEC cultures.
# (A) Fluoxetine. (B) Derivative 2. (C) Derviative 5. SAEC cultures were treated with 5% CSE and varying doses of Fluoxetine, Derivative 2 and Derivative 5, respectively. Treatment with the derivatives decreased MMP1 induction after cigarette smoke treatment.
# The compounds in this clinical set have all been tested and utilized in humans for various indications. These molecules were tested for their capacity to modulate MMP-1 smoke induced transcriptional activation. […] Prior work in our lab was critical in establishing MMP-1 as a destructive agent in the progression of COPD in humans. As such, we next exposed human small airway epithelial cells to cigarette smoke extract followed by treatment with fluoxetine.
# Aim 1b: Determining if potential CL(s) maintain their ability to inactivate MMP1 transcription and inflammatory pathways via inhibition of TLR4 signaling in human small airway epithelial cells. For each positive hit and fluoxetine, the DRC is used to derive their respective IC50's and Hill slopes. The concentration required to achieve a 50%, 75% and 99.9% fractional effect is calculated using the formula: [Cf]=[(fraction/100-fraction) ^(1/Hill slope)]IC50. The effect of each calculated concentration on cell viability is tested in triplicate on primary human small airway epithelial cell (hSAEC) culture via MTT assay. […] The chosen concentrations are tested on SAEC cultures exposed to 5% cigarette smoke extract for 24 h to assess their effects on MMP1 and TLR4 expression via mRNA extraction to analyze transcript levels by real-time RT-PCR. Culture media is collected and MMP1 secretion assessed by ELISA (R&D Systems, MN). Protein collected for western blot is used to assess IRAK phosphorylation, a known downstream effector of TLR4 activity. In addition, PCR arrays (ThermoFisher, MA) that measure the expression of cytokines that have been implicated in the pathogenesis of COPD, their receptors and the expression of transcription factors that regulate the cellular response to oxidants and CSE exposure are used to determine the ability of each derivative to suppress inflammatory signaling in smoke exposed cells.
# SAEC cultures were treated with 5% CSE and varying doses of Fluoxetine, Derivative 2 and Derivative 5, respectively. Treatment with the derivatives decreased MMP1 induction after cigarette smoke treatment.
# smoke exposed rabbits = conditions: cigarette smoke 16 weeks, oral; for mean linear intercept (morphometric analysis): versus smoke alone
# Text: (C) Representative H&E stains for each treatment group.
# As the next step, we observed the ability of oral duloxetine to inhibit cigarette smoke induced up-regulation of MMP1 and lung destruction in a rabbit model. Rabbits were utilized for these experiments since unlike mice they produce MMP-1. Rabbits were exposed to cigarette smoke for 16 weeks while receiving placebo or orally administered duloxetine.
# To assess the effects of SSRIs on the cigarette smoke induced inflammatory response, we utilized smoke-exposed mice.
# MMP1 promoter = MMP1 promoter luciferase reporter screen in CSE-treated transfected HEK 293T cells; assay type: cell-based, human; conditions: NIH clinical collection screen
# Procedure: (§1) These molecules were tested for their capacity to modulate MMP-1 smoke induced transcriptional activation. […] As such, we next exposed human small airway epithelial cells to cigarette smoke extract followed by treatment with fluoxetine.
# TLR-4 = TLR-4 signaling (TLR-4 expression, phospho-IRAK) in CSE exposed SAEC cultures; assay type: cell-based, human
# Procedure: as §1
# For each positive hit and fluoxetine, the DRC is used to derive their respective IC50's and Hill slopes. The concentration required to achieve a 50%, 75% and 99.9% fractional effect is calculated using the formula: [Cf]=[(fraction/100-fraction) ^(1/Hill slope)]IC50. The effect of each calculated concentration on cell viability is tested in triplicate on primary human small airway epithelial cell (hSAEC) culture via MTT assay. […] The chosen concentrations are tested on SAEC cultures exposed to 5% cigarette smoke extract for 24 h to assess their effects on MMP1 and TLR4 expression via mRNA extraction to analyze transcript levels by real-time RT-PCR. Culture media is collected and MMP1 secretion assessed by ELISA (R&D Systems, MN). Protein collected for western blot is used to assess IRAK phosphorylation, a known downstream effector of TLR4 activity.
# smoke exposed mice = assay: Cigarette smoke exposed mice, inflammatory BALF cell counts; assay type: in vivo, mouse; conditions: cigarette smoke 10 days, oral
# Text: FIG. 4: Oral fluoxetine treatment in smoke exposed mice reduces inflammatory BALF cell counts. […] (B) Representative cytospin DifQuik stains for each experimental group.
compound,measurement,setting,value
"CCCCN(C)CCC(Oc1ccc(C(F)(F)F)cc1)c1ccccc1 (stereo not shown) [Derivative 1, N-methyl-N-(3-phenyl-3-(4-(trifluoromethyl)phenoxy)propyl)butan-1-amine]",MMP1 concentration,MMP1; 5 μM,significantly decreasd MMP1 concentrations
same,MMP1 concentration,MMP1; 10 μM,significantly decreasd MMP1 concentrations
"CCNC(=O)N(C)CCC(Oc1ccc(C(F)(F)F)cc1)c1ccccc1 (stereo not shown) [Derivative 2, 3-ethyl-1-methyl-1-(3-phenyl-3-(4-(trifluoromethyl)phenoxy)propyl)urea]",MMP1 concentration,MMP1; 5 μM,significantly decreasd MMP1 concentrations
same,MMP1 concentration,MMP1; 10 μM,significantly decreasd MMP1 concentrations
same,IL-8 expression,IL-8,reduces IL-8 expression
same,MMP1 expression / MMP1 induction,MMP-1,reduces MMP1 expression
"CCNC(=S)N(C)CCC(Oc1ccc(C(F)(F)F)cc1)c1ccccc1 (stereo not shown) [Derivative 3, 3-ethyl-1-methyl-1-(3-phenyl-3-(4-(trifluoromethyl)phenoxy)propyl)thiourea]",MMP1 concentration,MMP1; 2 μM,did not show any reduction of MMP1
same,MMP1 concentration,MMP1; 5 μM,did not show any reduction of MMP1
same,MMP1 concentration,MMP1; 10 μM,significant reduction of MMP1
"CCC(=O)N(C)CCC(Oc1ccc(C(F)(F)F)cc1)c1ccccc1 (stereo not shown) [Derivative 4, N-methyl-N-(3-phenyl-3-(4-(trifluoromethyl)phenoxy)propyl)propionamide]",MMP1 concentration,MMP1; 2 μM,did not show any reduction of MMP1
same,MMP1 concentration,MMP1; 5 μM,did not show any reduction of MMP1
same,MMP1 concentration,MMP1; 10 μM,did not show any reduction of MMP1
"Cc1ccc(S(=O)(=O)N(C)CCC(Oc2ccc(C(F)(F)F)cc2)c2ccccc2)cc1 (stereo not shown) [Derivative 5, N,4-dimethyl-N-(3-phenyl-3-(4-(trifluoromethyl)phenoxy)propyl)benzenesulfonamide]",MMP1 concentration,MMP1; 5 μM,significantly decreasd MMP1 concentrations
same,MMP1 concentration,MMP1; 10 μM,significantly decreasd MMP1 concentrations
same,IL-8 expression,IL-8,reduces IL-8 expression
same,MMP1 expression / MMP1 induction,MMP-1,reduces MMP1 expression
"CN(CCC(Oc1ccc(C(F)(F)F)cc1)c1ccccc1)S(C)(=O)=O (stereo not shown) [Derivative 6, N-methyl-N-(3-phenyl-3-(4-(trifluoromethyl)phenoxy)propyl)methanesulfonamide]",MMP1 concentration,MMP1; 5 μM,significantly decreasd MMP1 concentrations
same,MMP1 concentration,MMP1; 10 μM,significantly decreasd MMP1 concentrations
CNCC[C@H](Oc1cccc2ccccc12)c1cccs1 [Duloxetine],MMP1 in bronchoalveolar lavage fluid (ELISA),smoke exposed rabbits,decreases MMP1 present in the BALF
same,MMP1 in bronchoalveolar lavage fluid (ELISA),smoke exposed rabbits; listed as duloxetine,reduced MMP1 levels
same,mean linear intercept (morphometric analysis),smoke exposed rabbits,significantly reduced mean linear intercept
same,mean linear intercept (morphometric analysis),smoke exposed rabbits; listed as duloxetine,decreased mean linear intercepts
same,inhibition of cigarette smoke induced MMP-1 production (MMP-1 smoke induced transcriptional activation),MMP1 promoter,potent inhibitors
CNCCC(Oc1ccc(C(F)(F)F)cc1)c1ccccc1 (stereo not shown) [Fluoxetine],TLR-4 expression,TLR-4,decreased expression; also recorded: abrogates the CSE induced increase in TLR-4 expression
same,phospho-IRAK (downstream effector of TLR-4),TLR-4,decreased expression; also recorded: abrogates
same,inhibition of cigarette smoke induced MMP-1 production (MMP-1 smoke induced transcriptional activation),MMP1 promoter,potent inhibitors
same,MMP1 present in the media (secretion),MMP-1; 5% CSE exposed SAEC cultures,decreased MMP-1 expression and secretion; also recorded: decreases MMP1 present in the media
same,expression of MMP1 transcript (PCR),MMP-1; 5% CSE exposed SAEC cultures,decreased MMP-1 expression
same,expression of MMP1 transcript (PCR),"MMP-1; 5% CSE exposed SAEC cultures, listed as fluoxetine",inhibits expression of MMP1 transcript
same,inflammatory cell counts in lung lavage fluid (BALF),smoke exposed mice,decreases the cell count
same,inflammatory cell counts in lung lavage fluid (BALF),smoke exposed mice; listed as fluoxetine,decreased inflammatory cell counts
